From ChEMBL document CHEMBL1201862, “PubChem BioAssay data set” (2004)
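Exposure lasted 48 hours, with cells grown in 96-well plates and compounds tested at five concentrations. The concentration for 50% growth inhibition is given as GI50.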 Active and inactive are the calls of the source. No stated cut-off is given here; in the data, active = GI50 up to about 1.1 µM and inactive = higher.

Experiments:
Assay in all cases: NCI tumour cell line growth inhibition, 48 h
786-0 = tested on: 786-0
ACHN = tested on: ACHN
COLO 205 = tested on: COLO 205
HCT-15 = tested on: HCT-15
HT-29 = tested on: HT-29
IGROV-1 = tested on: IGROV-1
K562 = tested on: K562
KM12 = tested on: KM12
NCI-H23 = tested on: NCI-H23
NCI-H460 = tested on: NCI-H460
OVCAR-3 = tested on: OVCAR-3
OVCAR-8 = tested on: OVCAR-8
SF-539 = tested on: SF-539
SK-MEL-5 = tested on: SK-MEL-5
SK-OV-3 = tested on: SK-OV-3
SN12C = tested on: SN12C
SNB-19 = tested on: SNB-19
SNB-75 = tested on: SNB-75
SW-620 = tested on: SW-620
U-251 = tested on: U-251

SMILES	GI50 (786-0)	GI50 (ACHN)	GI50 (COLO 205)	GI50 (HCT-15) [µM]	GI50 (HT-29)	GI50 (IGROV-1)	GI50 (K562)	GI50 (KM12)	GI50 (NCI-H23)	GI50 (NCI-H460)	GI50 (OVCAR-3)	GI50 (OVCAR-8)	GI50 (SF-539)	GI50 (SK-MEL-5)	GI50 (SK-OV-3)	GI50 (SN12C)	GI50 (SNB-19)	GI50 (SNB-75)	GI50 (SW-620)	GI50 (U-251)
CCCC(=O)Nc1cc(C(=O)N2C[C@H]3C[C@@]34C2=CC(=O)c2[nH]cc(C)c24)n(COC)c1	0.149 µM (active)	0.197 µM (active)	0.442 µM (active)	1.31	0.467 µM (active)	0.11 µM (active)	0.131 µM (active)	0.449 µM (active)	0.0743 µM (active)	0.317 µM (active)	0.0853 µM (active)	0.0973 µM (active)	0.177 µM (active)	0.0792 µM (active)	1.29 µM (inactive)	0.966 µM (active)	0.498 µM (active)	0.248 µM (active)	0.0169 µM (active)	0.114 µM (active)
Cc1ccc(/C=C/C(=O)c2ccc([N+](=O)[O-])cc2)cc1	> 100 µM (inactive)	> 100 µM (inactive)	> 100 µM (inactive)	> 100	> 100 µM (inactive)	> 100 µM (inactive)	> 100 µM (inactive)	> 100 µM (inactive)	30.9 µM (inactive)	> 100 µM (inactive)	> 100 µM (inactive)	> 100 µM (inactive)	> 100 µM (inactive)	> 100 µM (inactive)	> 100 µM (inactive)	> 100 µM (inactive)	> 100 µM (inactive)	> 100 µM (inactive)	> 100 µM (inactive)	21.2 µM (inactive)
COC(=O)Cc1cc(=O)n2c([nH]c3ccccc32)c1C#N	> 100 µM (inactive)	63.1 µM (inactive)	> 100 µM (inactive)	> 100	> 100 µM (inactive)	> 100 µM (inactive)	> 100 µM (inactive)	> 100 µM (inactive)	> 100 µM (inactive)	35.9 µM (inactive)	> 100 µM (inactive)	> 100 µM (inactive)	> 100 µM (inactive)	34.8 µM (inactive)	36.1 µM (inactive)	82.6 µM (inactive)	> 100 µM (inactive)	0.42 µM (active)	> 100 µM (inactive)	49.3 µM (inactive)
O=C(N/C(=C\c1ccccc1)c1nc2ccccc2c(=O)o1)c1ccccc1	41.7 µM (inactive)	31 µM (inactive)	> 100 µM (inactive)	97.1	> 100 µM (inactive)	31.4 µM (inactive)	> 100 µM (inactive)	7.96 µM (inactive)	46.3 µM (inactive)	> 72.6 µM (inactive)	> 70.5 µM (inactive)	> 57.7 µM (inactive)	> 53.7 µM (inactive)	> 100 µM (inactive)	59.2 µM (inactive)	> 86.7 µM (inactive)	27.3 µM (inactive)	20.4 µM (inactive)	> 88.3 µM (inactive)	33.8 µM (inactive)
COC(=O)C1=C(C(=O)OC)SC(=C(/N=N/c2ccccc2)c2ccccc2)S1	50.8 µM (inactive)	80.9 µM (inactive)	> 100 µM (inactive)	> 100	> 100 µM (inactive)	> 100 µM (inactive)	> 100 µM (inactive)	> 100 µM (inactive)	> 100 µM (inactive)	> 100 µM (inactive)	61.2 µM (inactive)	> 100 µM (inactive)	> 100 µM (inactive)	> 100 µM (inactive)	> 100 µM (inactive)	> 100 µM (inactive)	> 100 µM (inactive)	> 100 µM (inactive)	> 100 µM (inactive)	> 100 µM (inactive)
CC(C)c1ccc2c(c1)C=C1OC(=O)[C@]3(C)CCC[C@@]2(C)C13 (stereo not given in full)	> 100 µM (inactive)	> 100 µM (inactive)	> 100 µM (inactive)	> 100	> 100 µM (inactive)	> 100 µM (inactive)	> 100 µM (inactive)	> 100 µM (inactive)	> 100 µM (inactive)	> 100 µM (inactive)	> 100 µM (inactive)	> 100 µM (inactive)	> 100 µM (inactive)	> 100 µM (inactive)	> 100 µM (inactive)	> 100 µM (inactive)	> 100 µM (inactive)	> 100 µM (inactive)	> 100 µM (inactive)	> 100 µM (inactive)
CCOC(=O)Nc1ccc(S(=O)(=O)OC)cc1.CCOC(=O)Nc1ccc(S(=O)(=O)OC)cc1.NC(=O)NCCO	19.9 µM (inactive)	> 50 µM (inactive)	30.9 µM (inactive)	21.6	31.8 µM (inactive)	> 50 µM (inactive)	16.1 µM (inactive)	> 50 µM (inactive)	> 50 µM (inactive)	22.1 µM (inactive)	> 50 µM (inactive)	42.3 µM (inactive)	21.2 µM (inactive)	> 50 µM (inactive)	> 50 µM (inactive)	> 50 µM (inactive)	> 50 µM (inactive)	> 50 µM (inactive)	28.8 µM (inactive)	23 µM (inactive)
